Source: patent US6855730B2, “3-methylidenyl-2-indolinone modulators of protein kinase” (Sugen, Inc., priority 1998, dated 2005)
pIC50: −log10 of the molar value.

Target: EGFR (Homo sapiens, UniProt P00533)
Assay: EGFR assay (cellular ELISA, NIH 3T3/C7 cells)
Format: cell-based
Parameters: expressed in transfected cells; host or cells: NIH 3T3/C7
Conditions: read-out: cell EGF IC50
Description: EGF Receptor kinase activity in cells genetically engineered to express human EGF-R can be measured as described below:
Materials and Reagents. • a. […] 05-101 (UBI) (a monoclonal antibody recognizing an EGFR extracellular domain). • c. Anti-phosphotyosine antibody (anti-Ptyr) (polyclonal). • d. Detection antibody: Goat anti-rabbit IgG horse radish peroxidase conjugate, TAGO, Inc. Burlingame, Calif. • e. TBST buffer:
• Keep solution in dark at 4° C. until used. • h. Stock reagents of:
Pre-coat ELISA Plate • 1. […] Coated plates are good for up to 10 days when stored at 4° C. • 2. On day-of use, remove coating buffer and replace with blocking buffer (5% Carnation Instant NonFat Dry Milk in PBS). Incubate the plate, shaking, at room temperature (about 23° C. to 25° C.) for 30 minutes. Just prior to use, remove blocking buffer and wash plate 4 times with TBST buffer.
Seeding Cells • 1. […] Choose dishes having 80-90% confluence for the experiment. Trypsinize cells and stop reaction by adding 10% CS DMEM medium. Suspend cells in DMEM medium (10% CS DMEM medium) and centrifuge once at 1000 rpm at room temperature for 5 minutes. • 3. Resuspend cells in seeding medium (DMEM, 0.5% bovine serum), and count the cells using trypan blue. Viability above 90% is acceptable. Seed cells in DMEM medium (0.5% bovine serum) at a density of 10,000 cells per well, 100 μl per well, in a 96 well microtiter plate. Incubate seeded cells in 5% CO2 at 37° C. for about 40 hours.
Assay Procedures. • 1. Check seeded cells for contamination using an inverted microscope. Dilute test compounds stock (10 mg/ml in DMSO) 1:10 in DMEM medium, then transfer 5 μl to a test well for a test compounds drug dilution of 1:200 and a final DMSO concentration of 1%. Control wells receive DMSO alone. Incubate in 5% CO2 at 37° C. for one hour. • 2. Prepare EGF ligand: dilute stock EGF in DMEM so that upon transfer of 10 μl dilute EGF (1:12 dilution), 25 nM final concentration is attained. • 3. Prepare fresh 10 ml HNTG* sufficient for 100 μl per well wherein HNTG* comprises: HNTG stock (2.0 ml), milli-Q H2O (7.3 ml), EDTA, 100 mM, pH 7.0 (0.5 ml), Na3VO4 0.5 M (0.1 ml) and Na4(P2O7), 0.2 M (0.1 ml). • 4. Place on ice. • 5. After two hours incubation with drug, add prepared EGF ligand to cells, 10 μl per well, to yield a final concentration of 25 nM. Control wells receive DMEM alone. Incubate, shaking, at room temperature, for 5 minutes. • 6. Remove test compound, EGF, and DMEM. Wash cells twice with PBS. Transfer HNTG* to cells, 100 μl per well. Place on ice for 5 minutes. Meanwhile, remove blocking buffer from other ELISA plate and wash with TBST as described above. • 7. With a pipette tip securely fitted to a micropipettor, scrape cells from plate and homogenize cell material by repeatedly aspirating and dispensing the HNTG* lysis buffer. Transfer lysate to a coated, blocked, and washed ELISA plate. Incubate shaking at room temperature for one hour. • 8. Remove lysate and wash 4 times with TBST. Transfer freshly diluted anti-Ptyr antibody to ELISA plate at 100 μl per well. Incubate shaking at room temperature for 30 minutes in the presence of the anti-Ptyr antiserum (1:3000 dilution in TBST). • 9. Remove the anti-Ptyr antibody and wash 4 times with TBST. Transfer the freshly diluted TAGO 30 anti-rabbit IgG antibody to the ELISA plate at 100 μl per well. Incubate shaking at room temperature for 30 minutes (anti-rabbit IgG antibody: 1:3000 dilution in TBST). • 10. Remove detection antibody and wash 4 times with TBST. Transfer freshly prepared ABTS/H2O2 solution to ELISA plate, 100 μl per well. Incubate at room temperature for 20 minutes. ABTS/H2O2 solution: 1.2 μl 30% H2O2 in 10 ml ABTS stock. • 11. Stop reaction by adding 50 μl 5N H2SO4 (optional), and determine O.D. at 410 nm. • 12. The maximal phosphotyrosine signal is determined by subtracting the value of the negative controls from the positive controls. […]

Chain of EGFR (P00533 25-1210): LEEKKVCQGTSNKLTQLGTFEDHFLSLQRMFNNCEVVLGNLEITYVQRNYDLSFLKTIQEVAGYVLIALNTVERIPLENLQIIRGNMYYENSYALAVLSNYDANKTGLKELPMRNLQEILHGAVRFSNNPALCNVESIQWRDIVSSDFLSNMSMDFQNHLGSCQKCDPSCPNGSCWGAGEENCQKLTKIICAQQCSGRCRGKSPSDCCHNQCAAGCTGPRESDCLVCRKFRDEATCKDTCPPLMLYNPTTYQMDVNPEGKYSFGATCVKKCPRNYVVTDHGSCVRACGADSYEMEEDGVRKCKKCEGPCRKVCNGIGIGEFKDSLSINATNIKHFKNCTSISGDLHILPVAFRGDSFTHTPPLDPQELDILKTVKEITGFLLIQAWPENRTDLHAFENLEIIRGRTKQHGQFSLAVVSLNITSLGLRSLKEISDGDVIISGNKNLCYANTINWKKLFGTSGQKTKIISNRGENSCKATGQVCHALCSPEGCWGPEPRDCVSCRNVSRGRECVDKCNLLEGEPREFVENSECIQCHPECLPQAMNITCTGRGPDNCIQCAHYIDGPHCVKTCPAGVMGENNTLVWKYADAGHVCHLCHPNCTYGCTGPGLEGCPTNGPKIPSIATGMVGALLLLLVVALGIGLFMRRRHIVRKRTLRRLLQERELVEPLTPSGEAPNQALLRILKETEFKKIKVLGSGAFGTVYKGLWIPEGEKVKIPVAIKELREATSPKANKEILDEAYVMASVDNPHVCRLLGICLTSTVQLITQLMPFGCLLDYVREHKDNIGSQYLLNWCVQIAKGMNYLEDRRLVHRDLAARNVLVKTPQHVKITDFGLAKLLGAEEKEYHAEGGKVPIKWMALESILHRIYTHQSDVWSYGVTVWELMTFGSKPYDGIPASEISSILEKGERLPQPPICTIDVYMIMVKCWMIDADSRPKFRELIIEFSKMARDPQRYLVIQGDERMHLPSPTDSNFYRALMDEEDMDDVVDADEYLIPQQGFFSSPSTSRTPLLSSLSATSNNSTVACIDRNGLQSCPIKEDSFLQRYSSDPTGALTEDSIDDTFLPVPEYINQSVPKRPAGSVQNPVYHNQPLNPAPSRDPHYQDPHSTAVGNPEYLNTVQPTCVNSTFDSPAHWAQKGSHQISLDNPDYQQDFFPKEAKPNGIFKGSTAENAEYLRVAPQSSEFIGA

| pIC50 | Compound |
| --- | --- |
| 4.46 | COc1cc(C)c(C=C2C(=O)Nc3ccc(Cl)cc32)cc1C(C)C [Example 9, 5-Chloro-3-(5-isopropyl-4-methoxy-2-methylbenzylidene)-1,3-dihydroindol-2-one] |
| 4.51 | COc1ccc(/C=C2/C(=O)Nc3ccc(Br)cc32)cc1-c1ccccc1 [Example 13, 5-Bromo-3-(6-methoxybiphenyl-3-ylmethylene)-1,3-dihydroindol-2-one] |
| < 4.00 | CCOC(=O)c1c(C)[nH]c(/C=C2\C(=O)Nc3cc(-c4ccccc4OC)ccc32)c1CCC(=O)O [Example 110, 4-(2-Carboxyethyl)-5-[6-(2-methoxyphenyl)-2-oxo-1,2-dihydro-indol-3-ylidenemethyl]-2-methyl-1H-pyrrol-3-yl-carboxylic acid ethyl ester] |
| < 4.00 | COc1ccc(/C=C2/C(=O)Nc3ccccc32)cc1-c1ccsc1 [Example 35, 3-(4-Methoxy-3-thiophen-3-ylbenzylidene)-1,3-dihydroindol-2-one] |
| < 4.00 | COc1ccc(/C=C2\C(=O)Nc3cccc(C)c32)cc1C(C)C [Example 38, 3-(3-Isopropyl-4-methoxybenzylidene)-4-methyl-1,3-dihydroindol-2-one] |
| < 4.00 | Cc1cccc2c1/C(=C/c1ccc3c(c1)CCO3)C(=O)N2 [Example 69, 3-(2,3-Dihydrobenzofuran-5-ylmethylene)-4-methyl-1,3-dihydroindol-2-one] |
| < 4.00 | COc1ccccc1-c1ccc2c(c1)NC(=O)/C2=C\c1[nH]c(C)cc1CCC(=O)O [Example 109, 3-{2-[6-(2-Methoxyphenyl)-2-oxo-1,2-dihydroindol-3-ylidenemethyl]-5-methyl-1H-pyrrol-3-yl}-propionic acid] |
| < 4.00 | COc1ccc(/C=C2\C(=O)Nc3cccc(C)c32)cc1C1CCCC1 [Example 48, 3-(3-Cyclopentyl-4-methoxybenzylidene)-4-methyl-1,3-dihydroindol-2-one] |
| 4.14 | COc1ccc(/C=C2/C(=O)Nc3ccccc32)cc1C1CCCCC1 [Example 12, 3-(3-Cyclohexyl-4-methoxybenzylidene)-1,3-dihydroindol-2-one] |
| 4.03 | COc1ccc(/C=C2/C(=O)Nc3ccc(CCN4CCOCC4)cc32)cc1-c1ccsc1 [Example 26, 3-(4-Methoxy-3-thiophen-3-ylbenzylidene)-5-(2-morpholin-4-yl-ethyl)-1,3-dihydroindol-2-one] |
| 4.27 | CC(=O)Nc1ccc2c(c1)NC(=O)/C2=C\c1ccc2c(c1)CCC(C)(C)O2 [Example 33, N-[3-(2,2-Dimethylchroman-6-ylmethylene)-2-oxo-2,3-dihydro-1H-indol-6-yl]-acetamide] |
| 4.73 | COc1c(C)cc(/C=C2/C(=O)Nc3ccc(Cl)cc32)cc1C [Example 21, 5-Chloro-3-(4-methoxy-3,5-dimethylbenzylidene)-1,3-dihydroindol-2-one] |
| 4.46 | COc1c(C(C)C)cc(/C=C2/C(=O)Nc3ccc(C)cc32)cc1C(C)C [Example 19, 3-(3,5-Diisopropyl-4-methoxybenzylidene)-5-methyl-1,3-dihydroindol-2-one] |
| 4.11 | CC(=O)Nc1ccc2c(c1)NC(=O)/C2=C/c1ccc(OCCN2CCOCC2)c(C(C)(C)C)c1 [Example 55, N-{3-[3-tert-Butyl-4-(2-morpholin-4-ylethoxy)-benzylidene]-2-oxo-2,3-dihydro-1H-indol-6-yl}-acetamide] |
| 4.51 | COc1cc(C)c(C=C2C(=O)Nc3cc(NC(C)=O)ccc32)cc1C(C)C [Example 27, N-[3-(5-Isopropyl-4-methoxy-2-methyl-benzylidene)-2-oxo-2,3-dihydro-1H-indol-6-yl]-acetamide] |
| < 4.00 | COc1ccc(/C=C2/C(=O)Nc3ccc(F)cc32)cc1C1CCCCC1 [Example 43, 3-(3-Cyclohexyl-4-methoxybenzylidene)-5-fluoro-1,3-dihydroindol-2-one] |
| < 4.00 | CCc1ccc2c(c1)/C(=C\c1cc(C(C)C)c(OC)c(C(C)C)c1)C(=O)N2 [Example 28, 3-(3,5-Diisopropyl-4-methoxbenzylidene)-5-ethyl-1,3-dihydroindol-2-one] |
| 4.70 | COc1c(C(C)C)cc(/C=C2/C(=O)Nc3cc(O)ccc32)cc1C(C)C [Example 4, 3-(3,5-Diisopropyl-4-methoxybenzylidene)-6-hydroxy-1,3-dihydroindol-2-one] |
| 4.42 | CC1(C)CCc2cc(/C=C3/C(=O)Nc4ccc(F)cc43)ccc2O1 [Example 23, 3-(2,2-Dimethylchroman-6-ylmethylene)-5-fluoro-1,3-dihydroindol-2-one] |
| < 4.00 | COc1ccc(/C=C2/C(=O)Nc3cc(NC(C)=O)ccc32)cc1-c1ccsc1 [Example 18, N-[3-(4-Methoxy-3-thiophene-3-ylbenzylidene)-2-oxo-2,3-dihydro-1H-indol-6-yl]-acetamide] |
| 4.14 | COc1ccc(/C=C2/C(=O)Nc3ccc(F)cc32)cc1C1CCCC1 [Example 11, 3-(3-Cyclopentyl-4-methoxybenzylidene)-5-fluoro-1,3-dihydroindol-2-one] |
| 4.41 | CC(C)c1cc(/C=C2/C(=O)Nc3ccc(Cl)cc32)cc(C(C)C)c1OCCN1CCOCC1 [Example 24, 5-chloro-3-[3,5-diisopropyl-4-(2-morpholin-4-ylethoxy)-benzylidene]-1,3-dihydroindol-2-one] |
| < 4.00 | COc1cc(C)c(/C=C2/C(=O)Nc3ncccc32)cc1C(C)C [Example 45, 3-(5-Isopropyl-4-methoxy-2-methylbenzylidene)-1,3-dihydro-pyrrolo[2,3-b]pyridin-2-one] |
| 4.07 | COc1c(C(C)C)cc(/C=C2\C(=O)Nc3cccc(C)c32)cc1C(C)C [Example 53, 3-(3,5-Diisopropyl-4-methoxybenzylidene)-4-methyl-1,3-dihydroindol-2-one] |
| < 4.00 | COc1ccc(/C=C2/C(=O)Nc3ncccc32)cc1C(C)C [Example 70, 3-(3-Isopropyl-4-methoxybenzylidene)-1,3-dihydropyrrolo[2,3-b]pyridine-2-one] |
| 4.11 | COc1c(C(C)C)cc(/C=C2/C(=O)Nc3ccc(N)cc32)cc1C(C)C [Example 20, 5-Amino-3-(3,5-diisopropyl-4-methoxy-benzylidene)-1,3-dihydroindol-2-one] |
| < 4.00 | COc1cc(/C=C2/C(=O)Nc3ccccc32)c(-c2cccs2)cc1OC [Example 39, 3-(4,5-Dimethoxy-2-thiophen-2-ylbenzylidene)-1,3-dihydroindol-2-one] |
| 4.36 | COc1cc(C)c(C=C2C(=O)Nc3ccccc32)cc1C(C)C [Example 8, 3-(5-Isopropyl-4-methoxy-2-methylbenzylidene)-1,3-dihydroindol-2-one] |
| < 4.00 | CC(=O)Nc1ccc2c(c1)NC(=O)/C2=C/c1ccc(OCCN2CCOCC2)c(-c2ccsc2)c1 [Example 50, N-{3-[4-(2-Morpholin-4-ylethoxy)-3-thiophen-3-ylbenzylidene]-2-oxo-2,3-dihydro-1H-indol-6-yl}-acetamide] |
| < 4.00 | COc1ccc(/C=C2/C(=O)Nc3ncccc32)cc1C1CCCCC1 [Example 72, 3-(3-Cyclohexyl-4-methoxybenzylidene)-1,3-dihydropyrrolo[2,3-b]pyridin-2-one] |
